Reference: patent publication US20240398767A1, “INHIBITORS OF THE MTDH-SND1 PROTEIN COMPLEX FOR CANCER THERAPY” (The Trustees of Princeton University, priority 2021, published 2024)

What was measured:
[1] = target: T1, MTDH-SND1 interaction (Homo sapiens, UniProt Q7KZF4); assay: Co-immunoprecipitation (Co-IP) in SCP28 lysates with anti-MTDH antibody, Western blot for SND1; type: binding; conditions: 500 μM, SCP28 lysate
T1 construct: endogenous in cells; host or cells: SCP28 cells (lysate)
T1 sequence (Q7KZF4 2-910 limits assumed): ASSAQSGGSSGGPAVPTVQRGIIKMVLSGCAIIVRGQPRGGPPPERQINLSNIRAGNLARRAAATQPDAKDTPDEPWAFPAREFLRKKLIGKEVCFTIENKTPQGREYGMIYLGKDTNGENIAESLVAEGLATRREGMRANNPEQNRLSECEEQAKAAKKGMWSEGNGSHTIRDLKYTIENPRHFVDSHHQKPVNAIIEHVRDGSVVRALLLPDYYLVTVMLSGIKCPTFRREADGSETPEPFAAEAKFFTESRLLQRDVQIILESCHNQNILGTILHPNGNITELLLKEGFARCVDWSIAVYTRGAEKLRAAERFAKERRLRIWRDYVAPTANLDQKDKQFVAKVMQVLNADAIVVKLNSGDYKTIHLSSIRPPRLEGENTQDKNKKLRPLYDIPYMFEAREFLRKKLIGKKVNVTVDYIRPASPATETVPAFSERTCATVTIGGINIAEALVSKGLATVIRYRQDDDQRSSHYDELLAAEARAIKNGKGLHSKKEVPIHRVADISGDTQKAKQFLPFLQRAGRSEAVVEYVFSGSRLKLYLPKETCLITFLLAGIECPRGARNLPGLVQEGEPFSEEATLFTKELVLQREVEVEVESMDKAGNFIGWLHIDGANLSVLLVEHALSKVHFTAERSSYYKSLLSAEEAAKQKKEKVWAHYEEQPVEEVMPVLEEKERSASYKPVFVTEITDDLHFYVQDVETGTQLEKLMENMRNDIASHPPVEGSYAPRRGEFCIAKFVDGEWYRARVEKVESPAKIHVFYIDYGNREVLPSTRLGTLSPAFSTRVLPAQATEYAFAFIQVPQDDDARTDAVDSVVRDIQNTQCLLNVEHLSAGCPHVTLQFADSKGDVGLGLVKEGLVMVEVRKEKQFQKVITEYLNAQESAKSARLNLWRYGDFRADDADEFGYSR
Method: FIG. 3F, SCP28 cells grown confluent in each 10-cm dish were lysed with 1 ml IP lysis buffer. 500 μM of the compounds were added into each 1 ml of the samples and IP lysis buffer with 2 μg of anti-MTDH antibody. Western blot was then performed to detect SND1 that binds to MTDH.
FIG. 10E, Schematic diagram of Co-IP based confirmation of MTDH-SND1 inhibitory compounds (left). SCP28 cells were lysed for IP assay.2 μg of MTDH antibody together with 500 μM of MTDH wild type (Pep-WT) or mutant (Pep-MT) peptides were added into each 1 ml of samples. Red star indicates wild type MTDH peptide competing off SND1 that binds to MTDH.
Co-immunoprecipitation assay (Co-IP), which is a commonly used standard test to determine protein-protein interaction, was next employed to validate the candidates. Lysates of breast cancer cell line SCP28, a single cell-derived subline from the MDA-MB-231 TNBC cell line^25, was immunoprecipitated with anti-MTDH antibody alone or together with inhibitors (FIG. 3F and FIG. 10E). The samples were then incubated with Protein-A/G beads to pull down MTDH, followed by Western blot analysis to detect SND1. […] Using multiple screening and validation platforms, two classes of compounds, C26s and C32s, were obtained that inhibit MTDH-SND1 interaction.
Immunoprecipitation (IP) and western blotting (WB) analysis. For IP experiment, samples were prepared as previously described^32. 100 μl of the supernatant was transferred to a new tube as input, and the rest was incubated with 2 μg of IgG, anti-Myc (Santa Cruz, SC-40), or anti-MTDH (ThermoFisher, 40-6500) (as indicated in each experiment) overnight at 4° C. (small chemical compounds may be added at this step as indicated in each experiment). The rest standard IP procedures were performed as previously noted^32. […]

[2] = test system: 4TO7 lung metastases; assay: Established 4TO7 lung macrometastases; type: in vivo, Balb/C females
Method: For FIGS. 7A-7D, 2 k 4TO7 cells were injected into Balb/C females. 2 weeks after the injections, the mice were randomized based on lung metastasis that indicated by BLI, and were divided into four groups followed by vehicle, paclitaxel (Pac), and C26-A6 treatment alone or in combination. For Pac, the mice were treated with 20 mg/kg of Pac twice per week for the first two week and then once per week after that, For C26-A6, the mice were treated with 15 mg/kg of C26-A6 5 days per week. n=6 mice per group. Data represent mean±SEM.
FIG. 7A, Representative mice right before the treatment (week 2) and at week 10 are shown.
FIG. 7B, The BLI signal was quantified at week 2. Significance determined by one-way ANOVA analysis with Dunnett's test for multiple comparisons.
FIG. 7C, The metastasis progression of each individual is shown.
FIG. 7D, Survival rate in each group was analyzed. Significance determined by two-sided Log-rank test.
Lastly, to mimic the clinical scenario of adjuvant chemotherapy following surgical removal of the primary tumors, SCP28 mammary tumors were removed when they reached 5 mm in diameter, the mice were then randomly separated into four groups and subjected to the different treatment regimens as above. […] The mice were then treated with vehicle or paclitaxel and C26-A6 alone or in combination, and the metastasis progression was monitored by BLL.

## COc1ccc(Cl)cc1S(=O)(=O)Nc1cccn2ncnc12 [Analog C26-A2]
[1]
  MTDH-SND1 interaction (SND1 that binds to MTDH, Co-IP): strongest inhibitory effects

## COc1ccc(Cl)cc1S(=O)(=O)Nc1cccn2nc(C)nc12 [Analog C26-A6]
[1]
  MTDH-SND1 interaction (SND1 that binds to MTDH, Co-IP): strongest inhibitory effects
[2]; Pac 20 mg/kg, C26-A6 15 mg/kg 5 days per week
  metastatic growth (BLI): slowed down metastatic growth
[2]; six mice per group
  metastasis shrinkage: did not result in metastasis shrinkage
